From patent publication US12582616B2, “Molecular targets for modulation of dissociative and associative states” (The Board of Trustees of the Leland Stanford Junior …, priority 2020, dated 2026)
Entries after “also recorded” stand apart in the source; their conditions may differ.

Experiments:
[1] = system: retrosplenial cortex (RSP); assay: Widefield imaging of cortical activity in GCaMP6s mice; conditions: i.p. injection, ketamine 50 mg/kg
Text: We recorded multiregional neuronal activity by leveraging widefield microscopy, a cleared skull preparation, and atlas registration in GCaMP6s-expressing mice (FIGS. 1A-1C)^6,8,15.
As described^8, mice were anesthetized with isoflurane, the scalp was removed, the skull cleaned and dried, and a custom head-plate was cemented to contacts over the cerebellum and in front of the olfactory bulb. The skull was then covered in a thin layer of cyanoacrylate glue (Apollo 2000, Cyberbond), clear dental acrylic (Ortho-Jet, Lang Dental), and clear nail polish (Electron Microscopy Services). […] (0.1 mg/kg) was injected subcutaneously for pain management. […] Imaging was performed on a custom-built fluorescence microscope designed for high light collection efficiency and large field of view. […] Alternating 410 nm and 488 nm illumination for non-Ca^2+ dependent artifact removal was controlled using a microcontroller (Arduino) slaved to the frame output trigger of the camera.
Analysis was performed using custom MATLAB (MathWorks) scripts. Widefield imaging videos were registered to a 2D top-projection atlas generated from the annotated Allen Brain Atlas volume, version CCFv2, in MATLAB (MathWorks), using an affine transformation computed from four manually selected control points. Each video was DF/F normalized, using the median for each pixel over the entire time series as F. The 410 nm channel was then temporally smoothed using a moving average (width=400 ms). The smoothed 410 nm DF/F signal for each pixel was regressed onto the 488 nm DF/F signal for the corresponding pixel, and the regression coefficients were used to scale the 410 nm channel to the 488 nm channel. This scaled 410 nm DF/F signal was then subtracted from the 488 nm DF/F signal to produce a normalized signal for each pixel. For quantification, activity traces were extracted from points centered in five cortical regions (visual, somatosensory, parietal, motor, retrosplenial) on the left hemisphere of the brain. The video data was Gaussian smoothed spatially (radius=2 pixels).
Each trace (corresponding to either a fiber photometry signal, a cellular two-photon signal, a widefield regional centroid, a widefield pixel, an sEEG trace, or a smoothed spike rate Neuropixels trace) was z-scored, and the power spectral density (PSD) was then estimated using Welch's method (pwelch( ) in Matlab), with a window size of 10*fs (15*fs for human sEEG) where fs is the sampling rate of the signal. The average band power within a specified band (i.e. 1-3 Hz) was then computed by integrating the PSD estimate (bandpower in Matlab). […] Unless otherwise indicated, the PSD was computed across the time window from minutes 10 to 11 post-injection.

mice [2] = assay: Tail suspension test; format: in vivo, mouse; conditions: PCP 5 mg/kg
Experimental: Tail Suspension Test: Mouse activity was recorded using a 60 Hz web camera. Struggling activity was quantified for minutes 2-10. […] Illumination began 30 seconds before tails were secured with tape and suspended from the beam. Mice were excluded if they climbed on their own tails.

mice [3] = assay: Open field test; format: in vivo, mouse; conditions: 5 min session, compared with saline
Text: Open Field Test: Mice were placed in an evenly illuminated 50 cm×50 cm open field test box. Mouse position was captured using a webcam and Viewer software (Biobserve).

mice [4] = assay: Hot plate test; conditions: for dissociation-like behavior (sensory-detection vs affective responses), hot plate: other drug classes
Experimental: Hot Plate Test: Mice were placed on the hot plate (Bioseb), which was set to 55° C. and surrounded by a clear circular perimeter. Mouse activity was recorded using two cameras from different angles. The experiment ended when the mouse jumped to escape or 90 seconds had elapsed. Care was taken to clean and dry the hot plate apparatus between animals. For optogenetic experiments, mice were connected to patch cords and then returned to a holding cage. Illumination began 30 seconds before mice were placed on the hot plate.

Molecule	1-3 Hz oscillation localized to retrosplenial cortex (RSP), widefield imaging [1]	longer-timescale escape and social behaviors (mice [2])	open-field locomotion velocity (mice [3])	dissociation-like behavior (sensory-detection vs affective responses), hot plate (mice [4])	responsivity to salient stimuli (time-to-jump, rearing/socialization) (mice [4]; LSD 0.3 mg/kg)
C[C@]12N[C@H](Cc3ccccc31)c1ccccc12 [MK-801]	induced the RSP-localized oscillation	–	–	–	–
c1ccc(C2(N3CCCCC3)CCCCC2)cc1 [PCP, phencyclidine]	induced the RSP-localized oscillation	inhibited longer-timescale escape and social behaviors	locomotion velocity was unchanged	recapitulated ketamine's behavioral disconnection between sensory-detection and affective responses	–
Cc1cccc([C@H](C)c2cnc[nH]2)c1C [dexmedetomidine]	elicited waves of cortical activity without RSP restriction	–	–	–	–
CN1C(=O)CN=C(c2ccccc2)c2cc(Cl)ccc21 [diazepam]	Neither the GABAergic sedative diazepam nor the centrally-acting opioid-analgesic buprenorphine elicited the rhythm	–	decreased velocity	did not recapitulate dissociative-like behavior	–
CC12CC3CC(C)(C1)CC(N)(C3)C2 [memantine]	did not elicit oscillation	–	–	–	–
CC(C)c1cccc(C(C)C)c1O [propofol]	elicited waves of cortical activity without RSP restriction	–	–	–	–
(+)-Lysergic acid diethylamide (+)-tartrate (2:1) [LSD]	did not elicit oscillation	–	reducing locomotion in the stimulus-poor open-field; also recorded: decreased velocity	disrupted neither sensory-detection nor affective responses	tended to increase responsivity to salient stimuli
